These are literature values, as cited in patent US20080003280A1, “Combination cough treatment compounds and method of treating common coughs” (priority 2006, published 2008).

Data set [1] concerns cough induced with a capsaicin challenge.
Data set [2] relates to cough. Particulars: patients with an upper respiratory tract infection; in combination with a decongestant.
Data set [3] deals with cough.

As to `Cn1cnc2c1c(=O)[nH]c(=O)n2C` [Theobromine, 3,7-dihydro-3,7-dimethyl-1H-purine-2,6-dione], in data set [1] (discovered in the same study), the mucociliary clearance result was “stimulates mucociliary clearance” and the toxicity result was “low toxicity”. Further, in data set [1] (patients, capsaicin challenge, in comparison to codeine and caffeine, FIG. 2), the antitussive effect entry was “strong and long lasting antitussive effect, comparable, in fact to codeine”.
Turning to `CN(C)CCC(c1ccc(Br)cc1)c1ccccn1` (stereo not drawn) [brompheniramine], the effect on cough result in data set [2] is on record as “improvement in cough”.
As to `COc1ccc2c(c1)[C@]13CCCC[C@@H]1[C@H](C2)N(C)CC3` [dextromethorphan], in data set [3] (60 mg/dose in adults), the cough suppression result was “Significant cough suppression”. The antitussive effect result in data set [3] (adults, dose 15-30 mg (30 mg in FIG. 4), versus placebo) is “no greater than placebo”.
